“Also recorded” adds a separate entry of the source. Blank lines part the entries; values can stand above or below the compound they belong to.
Columns and labels:
Type in all cases: cell-based, human
HLO = assay: Fatty acid induction of steatohepatitis phenotype in HLOs; details: 300 µM oleic acid for 72 hours
Source text: Fatty acid treatment induces a steatohepatitis phenotype in HLOs. […] DGAT½, which catalyzes the formation of triglycerides from diacylglycerol and acyl-CoA, was increased in sHLO relative to normal HLOs (FIG. 7D).

sHLO = assay: Insulin responsiveness in sHLO (Western blot, gene expression, PCK1, glucose production)
Method: Insulin responsiveness in the sHLO was examined. To detect insulin responsiveness, insulin starvation of sHLO and HLO controls was performed for 24 hours, followed by insulin stimulation.
Insulin signal analysis by Western blot was performed by treating with 100 nM insulin for 20 minutes. […] Insulin responsiveness of PCK1, CREB 1, and FOXO1 was not suppressed in sHLO (FIGS. 7J-K). […] Furthermore, glucose production was not inhibited after insulin stimulation in sHLO (FIG. 7L).

PCK1 reporter HLOs = assay: PCK1 reporter (mScarlet fluorescence / luciferase) HLOs
Source text: To visualize and quantify HLO insulin responsiveness, iPSCs were genetically edited using the CRISPR/Cas9 system to insert a reporter construct comprising mScarlet (fluorescence) and luciferase (luminescence) genes downstream of the gluconeogenesis regulatory gene PCK1, at the 3′ end in exon 10 (FIG. 5A). FIG. 5A also depicts a schematic of the reporter function. […] When gluconeogenesis is suppressed by exposure to insulin, the expression of mScarlet and luciferase also decreases in correlation with the downregulation of PCK1. […] However, it is envisioned that other reporter constructs, such as those using alternative reporters, can be used. Furthermore, alternative insulin pathway regulatory genes are depicted in FIG. 3C to be used in lieu of PCK1.
Human iPSCs were gene edited to insert the fluorescence and luminescence reporter construct to the 3′ end of PCK1. […] These gene edited iPSCs were subsequently differentiated into HLOs. […] Subsequently, 100 ng/mL of insulin was applied for 3 hours, and fluorescence and luciferase activity were measured. […] FIGS. 6C-D depicts the detection of PCK1-luciferase luminescence as measured by in vitro imaging.
The effect of insulin concentration was tested. PCK1-luciferase HLOs were starved of insulin for 24 hours and then treated with 0 nM, 10 nM, 100 nM, or 1000 nM of insulin for 1 hour for luciferase imaging.
The effect of insulin treatment time was tested. Insulin starved HLOs were treated with 100 nM of insulin for 1, 2, or 3 hours (with no insulin control).

[1] = test system: AKT phosphorylation in HLOs; assay: AKT phosphorylation in HLOs after insulin (Western blot); details: HLOs insulin-starved 24 hours; insulin 0, 10 and 100 ng/mL for 20 minutes
Method: (§1) Insulin responsiveness of HLOs was analyzed using Western blotting and qPCR. The prepared HLOs were cultured under insulin starvation for 24 hours and then exposed to insulin.
To analyze phosphorylation of AKT activated downstream of insulin signaling. HLOs were treated with insulin at 0 ng/mL, 10 ng/mL and 100 ng/mL for 20 minutes, and then proteins were extracted for Western blot.

HLOs = assay: qPCR of gluconeogenesis and lipogenesis regulator genes in insulin-treated HLOs; details: HLOs insulin-starved 24 hours, insulin 100 ng/mL for 8 hours
Method: as §1
To analyze insulin responsiveness of gluconeogenesis and lipogenesis regulator genes in HLOs, they were treated with insulin at 100 ng/mL for 8 hours, and then RNA was extracted for qPCR. In the insulin-treated HLOs, gluconeogenesis regulatory gene expression (FOXO1, CREB1, TFE1, PCK1) was suppressed by insulin stimulation (FIG. 4B). Conversely, lipogenesis regulatory gene expression (SREBP, FASN, ACLY, ACC) was induced by insulin stimulation (FIG. 4C).

fatty liver HLO [2] = assay: Drug screening in fatty liver HLO: fat accumulation; details: HLO treated with fatty acids for 6 days; drug exposure 48 hours
Method: (§2) HLO were treated with fatty acids for 6 days to induce a fatty liver phenotype. Then, candidate drugs were exposed to the sHLO for 48 hours.

fatty liver HLO [3] = assay: Drug screening in fatty liver HLO: inflammatory gene expression; details: HLO treated with fatty acids for 6 days; drug exposure 48 hours
Method: as §2

Compound: CCCCCCCC/C=C\CCCCCCCC(=O)O [oleic acid]
fat accumulation (HLO): induces fat accumulation

PCK1-mScarlet fluorescence and luciferase activity (PCK1 reporter HLOs; 100 ng/mL insulin for 3 hours after treatment with cAMP): downregulation; also recorded: decreased
luciferase activity of PCK1 (PCK1 reporter HLOs; HLOs insulin-starved 24 hours, 10 nM, 100 nM or 1000 nM insulin for 1 hour): decreased
PCK1-luciferase activity (PCK1 reporter HLOs; cAMP-treated HLOs, 100 nM insulin for 3 hours): inhibited
luciferase activity of PCK1 (PCK1 reporter HLOs; insulin-starved HLOs, 100 nM insulin for 1, 2 or 3 hours): reduced after 1 hour of treatment
Compound: insulin
glucose production (sHLO; sHLO after insulin stimulation): not affected; also recorded: not inhibited
insulin response of PCK1 and other gluconeogenesis genes (sHLO; sHLO insulin-starved 24 hours, then insulin stimulation): not responsive
phosphorylation of AKT (sHLO; sHLO insulin-starved 24 hours, 100 nM insulin for 20 minutes, Western blot): inhibited in sHLO
AKT phosphorylation [1]: induces AKT phosphorylation
gluconeogenesis regulatory gene expression (FOXO1, CREB1, TFE1, PCK1) (HLOs): suppression; also recorded: suppressed
lipogenesis regulatory gene expression (SREBP, FASN, ACLY, ACC) (HLOs): induction; also recorded: induced

Compound: CN(C)C(=N)N=C(N)N [metformin]
fat accumulation (fatty liver HLO [2]): improvement
inflammatory gene expression (TNFa, NFKB1, NFKB2) / inflammatory response (fatty liver HLO [3]): limited improvement
